The assay has as its system Kuramochi cells labeled with mApple-H2B. Put plainly: IncuCyte Cell Proliferation Assay. The assay is classed as cell-based. Particulars: 72 h. The protocol:
IncuCyte® assay was used to measure the effect of disclosed compounds on cell proliferation. Fluorescent microscopy images of cells were taken immediately after compound treatment and 72 hours later. Image analysis software was used to obtain cell counts as a function of compound concentration. Kuramochi cells labeled with mApple-H2B were seeded on 384-well assay-ready plates. Plates were placed in an IncuCyte® (Sartorius) and scanned at 0 and 72 hours. IncuCyte® software was used to count the number of fluorescent nuclei in each well. The fold change in cell count from 0 to 72 hours in wells treated with increasing compounds concentrations (10 pts, ½ log dilution, 20 μM top concentration) was normalized to DMSO control wells. The normalized cell counts were fit with dose response curves and a […] was calculated.
As usually defined, the IC50 is the concentration at which inhibition is half-maximal. A higher IC50 goes with weaker potency in that assay. `C[C@@H](OCC1CCCCC1)C(NC(=O)[C@@H]1CN(C(=O)c2cncs2)CC12CN(C(=O)[C@H]1CC1(C)C)C2)c1nnco1` (stereo in doubt) [I-415, (S)—N-((1S,2R)-2-(cyclohexylmethoxy)-1-(1,3,4-oxadiazol-2-yl)propyl)-2-((S)-2,2-dimethylcyclopropane-1-carbonyl)-6-(thiazole-5-carbonyl)-2,6-diazaspiro[3.4]octane-8-carboxamide] yielded a concentration for half-maximal inhibition (IC50) of 0.5 to 5 µM.
In turn, `CNC(=O)[C@@H](NC(=O)[C@H]1CN(C(=O)c2cnn(Cc3ccccc3)c2)CC12CN(C(=O)OC(C)(C)C)C2)[C@@H](C)OCc1ccccc1` [I-3B] returned an IC50 of over 20 µM.
As to `[2H]C([2H])([2H])NC(=O)C(NC(=O)[C@@H]1CN(C(=O)c2cncs2)CC12CN(C(=O)[C@H]1CC1(C)C)C2)c1cccc(N2CCOCC2)n1` (some centres unmarked) [I-18], the IC50 was over 20 µM.
Turning to `Cc1ccc(CNC(=O)[C@@H]2CN(C(=O)c3cnn(Cc4ccncc4F)c3)CC23CN(C(=O)[C@H]2CC2(C)C)C3)nn1` [I-35], the IC50 was over 20 µM.
In turn, `C[C@@H](OCC1(C(F)(F)F)CC1)[C@H](NC(=O)[C@@H]1CN(C(=O)c2cncs2)CC12CN(C(=O)[C@H]1CC1(C)C)C2)C(=O)N1CCCCC1` [I-285] displayed an IC50 of over 20 µM.
For `C[C@@H](OCC1(C(F)(F)F)CC1)[C@H](NC(=O)[C@H]1CN(C(=O)c2cncs2)CC12CN(C(=O)[C@H]1CC1(C)C)C2)C(=O)N1CCC(F)(F)CC1` [I-291] the value was over 20 µM; for `C[C@@H](OCC1(C(F)(F)F)CC1)[C@H](NC(=O)[C@H]1CN(C(=O)c2cncs2)CC12CN(C(=O)[C@H]1CC1(C)C)C2)C(=O)N1CCCCC1` [I-292], over 20 µM; for `C[C@@H](OCC1CCOCC1)[C@H](NC(=O)[C@@H]1CN(C(=O)c2cn[nH]c2)CC12CN(C(=O)[C@H]1CC1(C)C)C2)C(=O)N1CCC(F)(F)CC1` [I-297], over 20 µM.
The result for `C[C@@H](OCC1CCCCC1)[C@H](NC(=O)[C@@H]1CN(C(=O)c2cnn(Cc3ccccc3)c2)CC12CN(C(=O)[C@H]1CC1(C)C)C2)C(=O)N1CCC(c2ccncc2)CC1` [I-300] reads at most 0.5 µM.
In turn, `C[C@@H](OCC1CCC(F)(F)CC1)[C@H](NC(=O)[C@@H]1CN(C(=O)c2cn[nH]c2)CC12CN(C(=O)[C@H]1CC1(C)C)C2)C(=O)N1CCOCC1` [I-301, (S)—N-((2S,3R)-3-((4,4-difluorocyclohexyl)methoxy)-1-morpholino-1-oxobutan-2-yl)-2-((S)-2,2-dimethylcyclopropane-1-carbonyl)-6-(1H-pyrazole-4-carbonyl)-2,6-diazaspiro[3.4]octane-8-carboxamide] yielded a half-maximal inhibitory concentration (IC50) of over 20 µM.
For the compound `C[C@@H](OCC1CCCCC1)[C@H](NC(=O)[C@@H]1CN(C(=O)c2cnn(Cc3ccccc3)c2)CC12CN(C(=O)[C@H]1CC1(C)C)C2)C(=O)N1CC[C@H]1CN` [I-310], the IC50 lay within 5 to 20 µM.
The result for `C[C@@H](OCC1CCOCC1)[C@@H](COC1CCC(F)(F)CC1)NC(=O)[C@@H]1CN(C(=O)c2cncs2)CC12CN(C(=O)[C@H]1CC1(C)C)C2` [I-312] reads 0.5 to 5 µM; that for `C[C@@H](OCC1CCC(F)(F)CC1)[C@H](NC(=O)[C@@H]1CN(C(=O)c2cncs2)CC12CN(C(=O)[C@H]1CC1(C)C)C2)C(C)(C)O` [I-313], 0.5 to 5 µM; that for `C[C@@H](OCC1CCC(F)(F)CC1)[C@@H](COC1CCOCC1)NC(=O)[C@@H]1CN(C(=O)c2cncs2)CC12CN(C(=O)[C@H]1CC1(C)C)C2` [I-314], at most 0.5 µM.
`C[C@@H](OCC1CCC(F)(F)CC1)[C@@H](COC1CCC(F)(F)CC1)NC(=O)[C@@H]1CN(C(=O)c2cncs2)CC12CN(C(=O)[C@H]1CC1(C)C)C2` [I-315] showed a 50% inhibitory concentration (IC50) of 0.5 to 5 µM.
In turn, `CC(O[C@H](C)[C@@H](COC1CCC(F)(F)CC1)NC(=O)[C@@H]1CN(C(=O)c2cncs2)CC12CN(C(=O)[C@H]1CC1(F)F)C2)C1CCC(F)(F)CC1` (some centres unmarked) [I-316] gave a 50% inhibitory concentration (IC50) of over 20 µM.
Compound `COC[C@H]1CCCN(C(=O)[C@@H](NC(=O)[C@@H]2CN(C(=O)c3cncs3)CC23CN(C(=O)[C@H]2CC2(C)C)C3)[C@@H](C)OCc2ccc(OC(F)(F)F)cc2)C1` [I-320] had an IC50 of 0.5 to 5 µM.
`C[C@@H](OCC1CCOCC1)[C@H](NC(=O)[C@@H]1CN(C(=O)c2cncs2)CC12CN(C(=O)[C@H]1CC1(C)C)C2)C(=O)N1CCC[C@H](COC(F)(F)F)C1` [I-327]: the 50% inhibitory concentration (IC50) was 5 to 20 µM.
`C[C@@H](OCC1CCCCC1)[C@@H](COC1CCNCC1)NC(=O)[C@@H]1CN(C(=O)c2cncs2)CC12CN(C(=O)[C@H]1CC1(C)C)C2` [I-329] gave a 50% inhibitory concentration (IC50) of 0.5 to 5 µM.
The result for `C[C@@H](OCC1CCCCC1)[C@@H](COC1CCOCC1)NC(=O)[C@@H]1CN(C(=O)c2cncs2)CC12CN(C(=O)[C@H]1CC1(C)C)C2` [I-331] reads at most 0.5 µM.
For `C[C@@H](OCC1CCCCC1)[C@@H](COC1CCCNC1)NC(=O)[C@@H]1CN(C(=O)c2cncs2)CC12CN(C(=O)[C@H]1CC1(C)C)C2` (some centres unmarked) [I-332] the value was 5 to 20 µM.
Regarding `C[C@@H](OCC1CCOCC1)[C@@H](COC1CCC(F)(F)CC1)NC(=O)[C@@H]1CN(C(=O)c2cncs2)CC12CN(C(=O)C(C)(C)C1CC1)C2` [I-333, (S)-2-(2-cyclopropyl-2-methylpropanoyl)-N-((2R,3R)-1-((4,4-difluorocyclohexyl)oxy)-3-((tetrahydro-2H-pyran-4-yl)methoxy)butan-2-yl)-6-(thiazole-5-carbonyl)-2,6-diazaspiro[3.4]octane-8-carboxamide], the IC50 fell in the range of 5 to 20 µM.
`C[C@@H](OCC12CCC(CC1)OC2)[C@H](NC(=O)[C@@H]1CN(C(=O)c2cncs2)CC12CN(C(=O)C(C)(C)C1CC1)C2)C(C)(C)O` [I-334] gave an IC50 of over 20 µM.
For `C[C@@H](OCC1CCC(F)(F)CC1)[C@H](NC(=O)[C@@H]1CN(C(=O)c2cncs2)CC12CN(C(=O)[C@H]1CC1(C)C)C2)C(=O)N1CCC2(CC1)COC2` [I-335] the value was 0.5 to 5 µM; for `C[C@@H](OCC1CCC(F)(F)CC1)[C@H](NC(=O)[C@@H]1CN(C(=O)c2cncs2)CC12CN(C(=O)C(C)(C)C1CC1)C2)C(=O)N1CCC(O)CC1` [I-337], 0.5 to 5 µM; for `CNC(=O)C(NC(=O)[C@@H]1CN(C(=O)c2cncs2)CC12CN(C(=O)C(C)(C)C1CC1)C2)c1cccc(C2CCOCC2)n1` (some centres unmarked) [I-338], over 20 µM.
As for `CC(C)(O)C(NC(=O)[C@@H]1CN(C(=O)c2cncs2)CC12CN(C(=O)C(C)(C)C1CC1)C2)c1cccc(C2CCOCC2)n1` (some centres unmarked) [I-339], the IC50 is over 20 µM.
In turn, `CN(C)C(=O)C(NC(=O)[C@@H]1CN(C(=O)c2cncs2)CC12CN(C(=O)C(C)(C)C1CC1)C2)c1cccc(C2CCOCC2)n1` (some centres unmarked) [I-340] displayed a 50% inhibitory concentration (IC50) of over 20 µM.
Compound `Cc1nc(C)c(C(=O)N2C[C@@H](C(=O)N[C@H](C(=O)N3CCC4(CC3)COC4)[C@@H](C)OCC34CCC(CC3)OC4)C3(C2)CN(C(=O)[C@H]2CC2(C)C)C3)s1` [I-343] gave an IC50 of over 20 µM.
Consider `CNC(=O)[C@@H](NC(=O)[C@@H]1CN(C(=O)c2cncs2)CC12CN(CC(C)(C)C)C2)[C@@H](C)OCC12CCC(CC1)OC2` [I-347], for which the IC50 is over 20 µM.
Consider `CNC(=O)[C@@H](NC(=O)[C@@H]1CN(C(=O)c2cncs2)CC12CN(CC1COC1)C2)[C@@H](C)OCC12CCC(CC1)OC2` [I-348], for which the IC50 was over 20 µM.
On to `CNC(=O)[C@@H](NC(=O)[C@@H]1CN(C(=O)c2cncs2)CC12CN(Cc1ccco1)C2)[C@@H](C)OCC12CCC(CC1)OC2` [I-349], for which the IC50 was over 20 µM.
Take `CNC(=O)[C@@H](NC(=O)[C@@H]1CN(C(=O)c2cncs2)CC12CN(Cc1cnco1)C2)[C@@H](C)OCC12CCC(CC1)OC2` [I-350]: the IC50 is over 20 µM.
For `CNC(=O)[C@@H](NC(=O)[C@@H]1CN(C(=O)c2cncs2)CC12CN(Cc1ccn[nH]1)C2)[C@@H](C)OCC12CCC(CC1)OC2` [I-351] the value was over 20 µM; for `CNC(=O)[C@@H](NC(=O)[C@@H]1CN(C(=O)c2cncs2)CC12CN(CC1CCCO1)C2)[C@@H](C)OCC1CCCCC1` (some centres unmarked) [I-352], over 20 µM.
The result for `C[C@@H](OCC1CCCCC1)[C@H](NC(=O)C1CN(C(=O)c2cnn(Cc3ccccc3)c2)CC12CN(C(=O)[C@H]1CC1(C)C)C2)C(=O)NCCC(=O)O` (some centres unmarked) [I-353] reads 5 to 20 µM; that for `Cc1ccc(CNC(=O)[C@@H]2CN(C(=O)c3cnn(Cc4ccccc4)c3)CC23CN(C(=O)C(C)(C)C2CC2)C3)nn1` [I-387, (S)-6-(1-benzyl-1H-pyrazole-4-carbonyl)-2-(2-cyclopropyl-2-methylpropanoyl)-N-((6-methylpyridazin-3-yl)methyl)-2,6-diazaspiro[3.4]octane-8-carboxamide], over 20 µM; that for `CC1(C)C[C@@H]1C(=O)N1CC2(CN(C(=O)c3cnn(Cc4ccccc4)c3)C[C@H]2C(=O)NC[C@H]2CC[C@@H](C)CC2)C1` [I-388], 0.5 to 5 µM.
For `COC[C@H]1CCCN(C(=O)[C@@H](NC(=O)[C@@H]2CN(C(=O)c3cncs3)CC23CN(C(=O)C(C)(C)C2CC2)C3)[C@@H](C)OCC2CCCCC2)C1` [I-389] the value was 0.5 to 5 µM; for `COC[C@H]1CCCN(C(=O)[C@@H](NC(=O)[C@@H]2CN(C(=O)c3cncs3)CC23CN(C(=O)[C@H]2CC2(C)C)C3)[C@@H](C)OCC2CCC3(CCC3)CC2)C1` [I-390], at most 0.5 µM.
Compound `CNC(=O)C(NC(=O)[C@@H]1CN(C(=O)c2cnn(Cc3ccccc3)c2)CC12CN(C(=O)[C@H]1CC1(C)C)C2)c1cccc(C2CCCCC2)n1` (some centres unmarked) [I-391] registered an IC50 of 0.5 to 5 µM.
Turning to `CC1(C)C[C@@H]1C(=O)N1CC2(CN(C(=O)c3cnn(Cc4ccccc4)c3)C[C@H]2C(=O)NCc2ccc(C(F)(F)F)nn2)C1` [I-392], the concentration for half-maximal inhibition (IC50) was over 20 µM.
On to `CNC(=O)[C@@H](NC(=O)[C@@H]1CN(C(=O)c2cnn(Cc3ccccc3)c2)CC12CN(C(=O)[C@H]1CC1(C)C)C2)C(C)(C)OCc1ccccc1` [I-393], for which the 50% inhibitory concentration (IC50) lay in the range of 5 to 20 µM.
Compound `C[C@@H](OCC1CCC(F)(F)CC1)[C@H](NC(=O)C1CN(C(=O)c2cncs2)CC12CN(C(=O)[C@H]1CC1(C)C)C2)C(=O)N1CCC(OC(F)(F)F)CC1` (some centres unmarked) [I-394] had a half-inhibitory concentration (IC50) of at most 0.5 µM.
